Reference: ChEMBL document CHEMBL1201862, “PubChem BioAssay data set” (2004)
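Five compound concentrations were applied to cells in 96-well plates for 48 hours; endpoints were derived by simple linear interpolation of the resulting dose-response curve. GI50 marks 50% less growth.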 Calls of active or inactive are those of the source. No stated cut-off is given here; in the data, active = GI50 up to about 1.1 µM and inactive = higher.

What was measured:
Assay in all cases: NCI-60 cell line screen, 48 h
[1] = test system: HCT-116
[2] = test system: DMS-114
[3] = test system: NCI-H226
[4] = test system: HOP-18
[5] = test system: SNB-78
[6] = test system: M14
[7] = test system: SK-MEL-5
[8] = test system: ACHN
[9] = test system: NCI-H23
[10] = test system: MOLT-4
[11] = test system: OVCAR-4
[12] = test system: SW-620
[13] = test system: UO-31
[14] = test system: SNB-19
[15] = test system: U-251
[16] = test system: SK-OV-3
[17] = test system: SF-539
[18] = test system: A498
[19] = test system: Malme-3M
[20] = test system: NCI-H460
[21] = test system: HOP-62
[22] = test system: RXF 393
[23] = test system: IGROV-1
[24] = test system: OVCAR-8
[25] = test system: TK-10
[26] = test system: COLO 205
[27] = test system: SF-268
[28] = test system: SF-295
[29] = test system: OVCAR-3
[30] = test system: LXFL 529
[31] = test system: OVCAR-5
[32] = test system: NCI-H522
[33] = test system: CCRF-CEM
[34] = test system: KM-20L2
[35] = test system: SK-MEL-2
[36] = test system: HCT-15
[37] = test system: DMS-273
[38] = test system: SK-MEL-28
[39] = test system: SNB-75
[40] = test system: UACC-62
[41] = test system: LOX IMVI
[42] = test system: HT-29
[43] = test system: CAKI-1
[44] = test system: HCC 2998
[45] = test system: A549
[46] = test system: RPMI-8226
[47] = test system: SN12C
[48] = test system: HL-60
[49] = test system: KM12
[50] = test system: K562
[51] = test system: 786-0
[52] = test system: UACC-257
[53] = test system: M19-MEL
[54] = test system: DLD-1
[55] = test system: EKVX
[56] = test system: HOP-92
[57] = test system: MCF7
[58] = test system: XF498
[59] = test system: NCI/ADR-RES
[60] = test system: SR

OC12CCCCCC1(N1CCOCC1)c1ccccc12 (configuration not stated)
GI50 [1]: > 100 µM (inactive)
GI50 [2]: > 100 µM (inactive)
GI50 [3]: > 100 µM (inactive)
GI50 [4]: > 100 µM (inactive)
GI50 [5]: > 100 µM (inactive)
GI50 [6]: > 100 µM (inactive)
GI50 [7]: > 100 µM (inactive)
GI50 [8]: > 100 µM (inactive)
GI50 [9]: > 100 µM (inactive)
GI50 [10]: > 100 µM (inactive)
GI50 [11]: > 100 µM (inactive)
GI50 [12]: > 100 µM (inactive)
GI50 [13]: > 100 µM (inactive)
GI50 [14]: > 100 µM (inactive)
GI50 [15]: > 100 µM (inactive)
GI50 [16]: > 100 µM (inactive)
GI50 [17]: > 100 µM (inactive)
GI50 [18]: > 100 µM (inactive)
GI50 [19]: > 100 µM (inactive)
GI50 [20]: > 100 µM (inactive)
GI50 [21]: > 100 µM (inactive)
GI50 [22]: > 100 µM (inactive)
GI50 [23]: > 100 µM (inactive)
GI50 [24]: > 100 µM (inactive)
GI50 [25]: > 100 µM (inactive)
GI50 [26]: > 100 µM (inactive)
GI50 [27]: > 100 µM (inactive)
GI50 [28]: > 100 µM (inactive)
GI50 [29]: > 100 µM (inactive)
GI50 [30]: > 100 µM (inactive)
GI50 [31]: > 100 µM (inactive)
GI50 [32]: > 100 µM (inactive)
GI50 [33]: > 100 µM (inactive)
GI50 [34]: > 100 µM (inactive)
GI50 [35]: > 100 µM (inactive)
GI50 [36]: > 100 µM
GI50 [37]: > 100 µM (inactive)
GI50 [38]: > 100 µM (inactive)
GI50 [39]: > 100 µM (inactive)
GI50 [40]: > 100 µM (inactive)
GI50 [41]: > 100 µM (inactive)
GI50 [42]: > 100 µM (inactive)
GI50 [43]: > 100 µM (inactive)
GI50 [44]: > 100 µM (inactive)
GI50 [45]: > 100 µM (inactive)
GI50 [46]: > 100 µM (inactive)
GI50 [47]: > 100 µM (inactive)
GI50 [48]: > 100 µM (inactive)
GI50 [49]: > 100 µM (inactive)
GI50 [50]: > 100 µM (inactive)
GI50 [51]: > 100 µM (inactive)
GI50 [52]: > 100 µM (inactive)
GI50 [53]: > 100 µM (inactive)

O=[N+]([O-])c1cnccc1-n1nnc2ccccc21
GI50 [54]: 20.2 µM (inactive)
GI50 [1]: 24.4 µM (inactive)
GI50 [55]: 22 µM (inactive)
GI50 [2]: 11.5 µM (inactive)
GI50 [3]: 18.9 µM (inactive)
GI50 [4]: 14.1 µM (inactive)
GI50 [5]: 27 µM (inactive)
GI50 [7]: 13.9 µM (inactive)
GI50 [56]: 18.8 µM (inactive)
GI50 [9]: 18.2 µM (inactive)
GI50 [10]: > 48 µM (inactive)
GI50 [11]: 15.3 µM (inactive)
GI50 [12]: 24.3 µM (inactive)
GI50 [57]: 13.4 µM (inactive)
GI50 [13]: 19.4 µM (inactive)
GI50 [14]: 30.6 µM (inactive)
GI50 [15]: 22.5 µM (inactive)
GI50 [16]: 23.3 µM (inactive)
GI50 [17]: 20.5 µM (inactive)
GI50 [18]: 28.3 µM (inactive)
GI50 [19]: 17.3 µM (inactive)
GI50 [20]: 21.5 µM (inactive)
GI50 [21]: 25.1 µM (inactive)
GI50 [22]: 17.3 µM (inactive)
GI50 [23]: 13.9 µM (inactive)
GI50 [24]: 17.7 µM (inactive)
GI50 [58]: 13.8 µM (inactive)
GI50 [26]: 17.9 µM (inactive)
GI50 [27]: 18.8 µM (inactive)
GI50 [28]: 20.2 µM (inactive)
GI50 [29]: 17.8 µM (inactive)
GI50 [31]: 32.1 µM (inactive)
GI50 [32]: 16 µM (inactive)
GI50 [33]: 19.8 µM (inactive)
GI50 [34]: 29.2 µM (inactive)
GI50 [35]: 16.5 µM (inactive)
GI50 [59]: 20.2 µM (inactive)
GI50 [36]: 18 µM
GI50 [37]: 14.1 µM (inactive)
GI50 [38]: 19.9 µM (inactive)
GI50 [39]: 15.2 µM (inactive)
GI50 [40]: 13.8 µM (inactive)
GI50 [41]: 12.6 µM (inactive)
GI50 [42]: 28.3 µM (inactive)
GI50 [44]: 19.7 µM (inactive)
GI50 [45]: 25.1 µM (inactive)
GI50 [46]: 32.9 µM (inactive)
GI50 [47]: 16 µM (inactive)
GI50 [48]: 16 µM (inactive)
GI50 [49]: 17.2 µM (inactive)
GI50 [50]: 20.7 µM (inactive)
GI50 [52]: 14.7 µM (inactive)
GI50 [53]: 15.3 µM (inactive)

O=C(/C=C/c1cc(Cl)cc(Cl)c1O)c1cccc(O)c1
GI50 [54]: 38.8 µM (inactive)
GI50 [1]: 42.4 µM (inactive)
GI50 [55]: 36.3 µM (inactive)
GI50 [2]: 35.9 µM (inactive)
GI50 [3]: 16.1 µM (inactive)
GI50 [4]: 31 µM (inactive)
GI50 [5]: 91.8 µM (inactive)
GI50 [6]: 29.5 µM (inactive)
GI50 [7]: 45.6 µM (inactive)
GI50 [56]: 27.8 µM (inactive)
GI50 [8]: > 100 µM (inactive)
GI50 [9]: 52 µM (inactive)
GI50 [10]: 20.4 µM (inactive)
GI50 [11]: 40.2 µM (inactive)
GI50 [60]: 25.5 µM (inactive)
GI50 [12]: 54.5 µM (inactive)
GI50 [13]: 74.1 µM (inactive)
GI50 [14]: 41.9 µM (inactive)
GI50 [15]: 25.5 µM (inactive)
GI50 [16]: 31.8 µM (inactive)
GI50 [17]: 28.2 µM (inactive)
GI50 [18]: > 100 µM (inactive)
GI50 [19]: 28.6 µM (inactive)
GI50 [20]: > 100 µM (inactive)
GI50 [21]: 74 µM (inactive)
GI50 [22]: > 100 µM (inactive)
GI50 [23]: 42.2 µM (inactive)
GI50 [24]: 32.1 µM (inactive)
GI50 [25]: > 100 µM (inactive)
GI50 [26]: 18.6 µM (inactive)
GI50 [27]: 40.2 µM (inactive)
GI50 [28]: 14.8 µM (inactive)
GI50 [29]: 28.4 µM (inactive)
GI50 [30]: 57.1 µM (inactive)
GI50 [31]: 15 µM (inactive)
GI50 [32]: > 100 µM (inactive)
GI50 [33]: 29.9 µM (inactive)
GI50 [34]: 48.3 µM (inactive)
GI50 [35]: 26.2 µM (inactive)
GI50 [36]: 41.5 µM
GI50 [37]: 54.2 µM (inactive)
GI50 [38]: 43.5 µM (inactive)
GI50 [39]: 36 µM (inactive)
GI50 [40]: 29.8 µM (inactive)
GI50 [41]: 12.6 µM (inactive)
GI50 [42]: 93.8 µM (inactive)
GI50 [43]: > 100 µM (inactive)
GI50 [44]: 85.3 µM (inactive)
GI50 [45]: > 100 µM (inactive)
GI50 [46]: 49.3 µM (inactive)
GI50 [47]: 13.7 µM (inactive)
GI50 [48]: 29.1 µM (inactive)
GI50 [49]: 54 µM (inactive)
GI50 [50]: 33.4 µM (inactive)
GI50 [51]: 70.5 µM (inactive)
GI50 [52]: > 100 µM (inactive)
GI50 [53]: 26.5 µM (inactive)

O=c1oc2cc(O)ccc2c2oc3cc(O)ccc3c12 [COUMESTROL]
GI50 [54]: 62.5 µM (inactive)
GI50 [1]: 32.7 µM (inactive)
GI50 [55]: 77.4 µM (inactive)
GI50 [2]: 9.89 µM (inactive)
GI50 [3]: 4.18 µM (inactive)
GI50 [4]: > 125 µM (inactive)
GI50 [5]: 64.4 µM (inactive)
GI50 [7]: 9.91 µM (inactive)
GI50 [56]: > 118 µM (inactive)
GI50 [9]: 58.5 µM (inactive)
GI50 [10]: 13.8 µM (inactive)
GI50 [11]: 83.9 µM (inactive)
GI50 [12]: 59 µM (inactive)
GI50 [57]: 96.8 µM (inactive)
GI50 [13]: 48.3 µM (inactive)
GI50 [14]: 47.6 µM (inactive)
GI50 [15]: 33.3 µM (inactive)
GI50 [16]: 42.1 µM (inactive)
GI50 [17]: 56.6 µM (inactive)
GI50 [18]: 0.248 µM (active)
GI50 [19]: 79.6 µM (inactive)
GI50 [20]: 38.6 µM (inactive)
GI50 [21]: 16 µM (inactive)
GI50 [22]: 54.1 µM (inactive)
GI50 [23]: 79.8 µM (inactive)
GI50 [24]: 70 µM (inactive)
GI50 [58]: > 19.8 µM (inactive)
GI50 [26]: 26 µM (inactive)
GI50 [27]: 53.7 µM (inactive)
GI50 [28]: 76 µM (inactive)
GI50 [29]: 45.2 µM (inactive)
GI50 [31]: > 125 µM (inactive)
GI50 [32]: 6.46 µM (inactive)
GI50 [33]: 8.81 µM (inactive)
GI50 [34]: 41 µM (inactive)
GI50 [35]: > 125 µM (inactive)
GI50 [59]: 108 µM (inactive)
GI50 [36]: 54.5 µM
GI50 [37]: 54.7 µM (inactive)
GI50 [38]: > 125 µM (inactive)
GI50 [39]: 94.8 µM (inactive)
GI50 [40]: 71.6 µM (inactive)
GI50 [41]: 42.1 µM (inactive)
GI50 [42]: 49 µM (inactive)
GI50 [43]: 49.9 µM (inactive)
GI50 [44]: 53.6 µM (inactive)
GI50 [45]: 43.1 µM (inactive)
GI50 [46]: 45.8 µM (inactive)
GI50 [47]: 13.2 µM (inactive)
GI50 [48]: 6.93 µM (inactive)
GI50 [49]: 111 µM (inactive)
GI50 [50]: 74 µM (inactive)
GI50 [52]: 87.9 µM (inactive)
GI50 [53]: 92.7 µM (inactive)
